Results from patent US20090215778A1, “Alpha-substituted Arylmethyl Piperazine Pyrazolo [1,5-alpha]Pyrimidine Amide Derivatives” (priority 2007, published 2009).

What was measured:
[1] = molecular target: T1, HIV Env six-helix bundle (6HB) structure (Human immunodeficiency virus type 1 group M subtype B, UniProt P04579); assay: Six-helix bundle (6HB) assay; type: cell-based, HIV-1 (strain RF)
T1 construct: H9 cells chronically infected with HIV-1 (H9/HIV-1RF); endogenous in cells; host or cells: H9 cells chronically infected with HIV-1 strain RF (Env is made from the virus in the infected cells, not by transfection)
T1 sequence (P04579 32-519): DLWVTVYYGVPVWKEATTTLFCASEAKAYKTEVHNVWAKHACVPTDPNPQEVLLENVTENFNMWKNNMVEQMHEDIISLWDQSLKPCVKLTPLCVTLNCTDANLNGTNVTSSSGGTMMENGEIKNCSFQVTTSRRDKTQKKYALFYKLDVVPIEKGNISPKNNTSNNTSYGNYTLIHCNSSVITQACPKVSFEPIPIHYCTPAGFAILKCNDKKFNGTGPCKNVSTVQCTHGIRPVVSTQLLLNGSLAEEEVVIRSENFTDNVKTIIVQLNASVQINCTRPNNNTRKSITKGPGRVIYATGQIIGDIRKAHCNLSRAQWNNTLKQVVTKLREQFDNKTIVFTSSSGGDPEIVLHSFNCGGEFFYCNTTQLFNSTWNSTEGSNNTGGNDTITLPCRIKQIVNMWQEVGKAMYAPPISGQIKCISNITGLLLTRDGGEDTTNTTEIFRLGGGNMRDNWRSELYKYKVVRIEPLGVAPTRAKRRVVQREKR
T1 sequence (P04579 520-865): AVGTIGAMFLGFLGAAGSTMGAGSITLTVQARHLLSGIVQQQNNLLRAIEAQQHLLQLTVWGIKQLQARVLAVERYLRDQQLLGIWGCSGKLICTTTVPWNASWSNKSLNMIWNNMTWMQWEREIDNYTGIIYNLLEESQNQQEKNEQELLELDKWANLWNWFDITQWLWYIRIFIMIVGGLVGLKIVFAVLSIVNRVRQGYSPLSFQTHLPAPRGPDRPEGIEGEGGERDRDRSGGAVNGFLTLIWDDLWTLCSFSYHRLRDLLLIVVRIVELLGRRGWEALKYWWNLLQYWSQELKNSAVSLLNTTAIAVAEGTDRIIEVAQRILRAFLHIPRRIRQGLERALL
In short: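 Chronically HIV-1 RF-infected H9 cells (12-40 days post-infection), 2.5×10^5 per well, were preincubated with compound for 30 min at 37 °C. sCD4 at 1 μg/mL was added for 1 h to trigger Env changes. 6HB-specific rabbit serum (1 h, 37 °C) was then added, followed by PE anti-rabbit (45 min, 4 °C), with flow cytometric fluorescence read-out.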

HIV-1, NL4-3 strain = assay: Virus infection assay (virus entry and single-cycle infection); type: cell-based; conditions: Human immunodeficiency virus 1, NL43, TZM-b1, read-out: Nl4
In short: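 TZM-b1 cells (CD4, CXCR4, CCR5; LTR-driven lacZ/luciferase reporters) were infected with HIV-1 NL4-3 (MOI 0.01) with 80 μg/mL DEAE-dextran in the presence of test compound, 4 h at 37 °C before adding complete medium. Infection was quantified one day post-infection as chemiluminescent β-galactosidase signal.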

| SMILES | IC50 [1] | IC50 (HIV-1, NL4-3 strain) |
| --- | --- | --- |
| COc1ccc(-c2nc3c(C(=O)N4CCN([C@@H](CO)c5ccc(C(C)=O)s5)C[C@H]4C)cnn3c(C(F)(F)F)c2C)cc1 [ethanone, 1-[5-[(1S)-2-hydroxy-1-[(3R)-4-[[5-(4-methoxyphenyl)-6-methyl-7-(trifluoromethyl)pyrazolo[1,5-α]pyrimidin-3-yl]carbonyl]-3-methyl-1-piperazinyl]ethyl]-2-thienyl]-] | < 1000 nM | 1100 to 10000 nM |
| COc1ccc(-c2nc3c(C(=O)N4CCN(C(CO)c5cccc(NC(=O)OC(C)(C)C)c5)C[C@H]4C)cnn3c(C(F)(F)F)c2C)cc1 (stereo partly drawn) [carbamic acid, N-[3-[2-hydroxy-1-[(3R)-4-[[5-(4-methoxyphenyl)-6-methyl-7-(trifluoromethyl)pyrazolo[1,5-α]pyrimidin-3-yl]carbonyl]-3-methyl-1-piperazinyl]ethyl]phenyl]-, 1,1-dimethylethyl ester] | 1100 to 10000 nM | 1100 to 10000 nM |
| COc1ccc(-c2nc3c(C(=O)N4CCN(C(CO)c5cccc(N6CCOCC6)c5)C[C@H]4C)cnn3c(C(F)(F)F)c2C)cc1 (stereo partly drawn) [methanone, [(2R)-4-[2-hydroxy-1-[3-(4-morpholinyl)phenyl]ethyl]-2-methyl-1-piperazinyl][5-(4-methoxyphenyl)-6-methyl-7-(trifluoromethyl)pyrazolo[1,5-α]pyrimidin-3-yl]-] | 1100 to 10000 nM | 1100 to 10000 nM |
| COc1ccc(-c2nc3c(C(=O)N4CCN(C(CO)c5cccnc5OC)C[C@H]4C)cnn3c(C(F)(F)F)c2C)cc1 (stereo partly drawn) [methanone, [(2R)-4-[2-hydroxy-1-(2-methoxy-3-pyridinyl)ethyl]-2-methyl-1-piperazinyl][5-(4-methoxyphenyl)-6-methyl-7-(trifluoromethyl)pyrazolo[1,5-α]pyrimidin-3-yl]-] | < 1000 nM | < 1000 nM |
| COc1ccc(-c2nc3c(C(=O)N4CCN([C@@H](CO)c5ccc(C)s5)C[C@H]4C)cnn3c(C(F)(F)F)c2C)cc1 [methanone, [(2R)-4-[(1S)-2-hydroxy-1-(5-methyl-2-thienyl)ethyl]-2-methyl-1-piperazinyl][5-(4-methoxyphenyl)-6-methyl-7-(trifluoromethyl)pyrazolo[1,5-α]pyrimidin-3-yl]-] | < 1000 nM | < 1000 nM |
| COc1ccc(-c2nc3c(C(=O)N4CCN(C(CO)c5cnc(OC)nc5)C[C@H]4C)cnn3c(C(F)(F)F)c2C)cc1 (stereo partly drawn) [methanone, [(2R)-4-[2-hydroxy-1-(2-methoxy-5-pyrimidinyl)ethyl]-2-methyl-1-piperazinyl][5-(4-methoxyphenyl)-6-methyl-7-(trifluoromethyl)pyrazolo[1,5-α]pyrimidin-3-yl]-] | < 1000 nM | < 1000 nM |
| COc1ccc(-c2nc3c(C(=O)N4CCN(C(CO)c5ccc(Cl)nc5)C[C@H]4C)cnn3c(C(F)(F)F)c2C)cc1 (stereo partly shown) | < 1000 nM | < 1000 nM |
| COc1ccc(-c2nc3c(C(=O)N4CCN(C(CO)c5cccc(C#N)c5)C[C@H]4C)cnn3c(C(F)(F)F)c2C)cc1 (stereo partly drawn) [benzonitrile, 3-[2-hydroxy-1-[(3R)-4-[[5-(4-methoxyphenyl)-6-methyl-7-(trifluoromethyl)pyrazolo[1,5-α]pyrimidin-3-yl]carbonyl]-3-methyl-1-piperazinyl]ethyl]-] | < 1000 nM | < 1000 nM |
| COc1ccc(-c2nc3c(C(=O)N4CCN(C(CO)c5cc(C(C)=O)ccc5F)C[C@H]4C)cnn3c(C(F)(F)F)c2C)cc1 (stereo partly drawn) [ethanone, 1-[4-fluoro-3-[2-hydroxy-1-[(3R)-4-[[5-(4-methoxyphenyl)-6-methyl-7-(trifluoromethyl)pyrazolo[1,5-α]pyrimidin-3-yl]carbonyl]-3-methyl-1-piperazinyl]ethyl]phenyl]-] | < 1000 nM | < 1000 nM |
| COc1ccc(-c2nc3c(C(=O)N4CCN(C(CO)c5ccc(OC)nc5)C[C@H]4C)cnn3c(C(F)(F)F)c2C)cc1 (stereo partly drawn) [methanone, [(2R)-4-[2-hydroxy-1-(6-methoxy-3-pyridinyl)ethyl]-2-methyl-1-piperazinyl][5-(4-methoxyphenyl)-6-methyl-7-(trifluoromethyl)pyrazolo[1,5-α]pyrimidin-3-yl]-] | < 1000 nM | < 1000 nM |
| COc1ccc(-c2nc3c(C(=O)N4CCN([C@H](CO)c5ccccc5OC)C[C@H]4C)cnn3c(C(F)(F)F)c2C)cc1 [methanone, [(2R)-4-[(1S)-2-hydroxy-1-(2-methoxyphenyl)ethyl]-2-methyl-1-piperazinyl][5-(4-methoxyphenyl)-6-methyl-7-(trifluoromethyl)pyrazolo[1,5-α]pyrimidin-3-yl]-] | < 1000 nM | < 1000 nM |
| COc1ccc(-c2nc3c(C(=O)N4CCN(C(CO)c5cccc(NC(=O)C6CC6)c5)C[C@H]4C)cnn3c(C(F)(F)F)c2C)cc1 (stereo partly drawn) [cyclopropanecarboxamide, N-[3-[2-hydroxy-1-[(3R)-4-[[5-(4-methoxyphenyl)-6-methyl-7-(trifluoromethyl)pyrazolo[1,5-α]pyrimidin-3-yl]carbonyl]-3-methyl-1-piperazinyl]ethyl]phenyl]-] | < 1000 nM | < 1000 nM |
| CCc1ccc(-c2nc3c(C(=O)N4CCN([C@@H](CO)c5ccccc5)C[C@H]4C)cnn3c(C(F)(F)F)c2C)cc1 [methanone, [5-(4-ethylphenyl)-6-methyl-7-(trifluoromethyl)pyrazolo[1,5-α]pyrimidin-3-yl][(2R)-4-[(1R)-2-hydroxy-1-phenylethyl]-2-methyl-1-piperazinyl]-] | < 1000 nM | < 1000 nM |
| COc1ccc(-c2nc3c(C(=O)N4CCN(C(CO)c5cccc(CN)c5)C[C@H]4C)cnn3c(C(F)(F)F)c2C)cc1 (stereo partly drawn) [methanone, [(2R)-4-[1-[3-(aminomethyl)phenyl]-2-hydroxyethyl]-2-methyl-1-piperazinyl][5-(4-methoxyphenyl)-6-methyl-7-(trifluoromethyl)pyrazolo[1,5-α]pyrimidin-3-yl]-] | > 10100 nM | > 10100 nM |
| COc1ccc(-c2nc3c(C(=O)N4CCN([C@@H](CO)c5ccccc5)C[C@H]4C)cnn3c(C(F)(F)F)c2OC)cc1 [methanone, [(2R)-4-[(1R)-2-hydroxy-1-phenylethyl]-2-methyl-1-piperazinyl][6-methoxy-5-(4-methoxyphenyl)-7-(trifluoromethyl)pyrazolo[1,5-α]pyrimidin-3-yl]-] | < 1000 nM | < 1000 nM |
| COc1ccc(-c2nc3c(C(=O)N4CCN(C(CO)c5ccccc5F)C[C@H]4C)cnn3c(C(F)(F)F)c2C)cc1 (stereo partly drawn) [methanone, [(2R)-4-[1-(2-fluorophenyl)-2-hydroxyethyl]-2-methyl-1-piperazinyl][5-(4-methoxyphenyl)-6-methyl-7-(trifluoromethyl)pyrazolo[1,5-α]pyrimidin-3-yl]-] | < 1000 nM | < 1000 nM |
| COc1ccc(-c2nc3c(C(=O)N4CCN(C(CO)c5ccc(C(=O)N(C)C)s5)C[C@H]4C)cnn3c(C(F)(F)F)c2C)cc1 (stereo partly drawn) [2-thiophenecarboxamide, 5-[2-hydroxy-1-[(3R)-4-[[5-(4-methoxyphenyl)-6-methyl-7-(trifluoromethyl)pyrazolo[1,5-α]pyrimidin-3-yl]carbonyl]-3-methyl-1-piperazinyl]ethyl]-N,N-dimethyl-] | > 10100 nM | > 10100 nM |
| COc1ccc(-c2nc3c(C(=O)N4CCN(C(CO)c5cc6ccccc6o5)C[C@H]4C)cnn3c(C(F)(F)F)c2C)cc1 (stereo partly drawn) [methanone, [(2R)-4-[1-(2-benzofuranyl)-2-hydroxyethyl]-2-methyl-1-piperazinyl][5-(4-methoxyphenyl)-6-methyl-7-(trifluoromethyl)pyrazolo[1,5-α]pyrimidin-3-yl]-] | < 1000 nM | < 1000 nM |
| COc1ccc(-c2nc3c(C(=O)N4CCN([C@H](CO)c5ccc(C)s5)C[C@H]4C)cnn3c(C(F)(F)F)c2C)cc1 [methanone, [(2R)-4-[(1R)-2-hydroxy-1-(5-methyl-2-thienyl)ethyl]-2-methyl-1-piperazinyl][5-(4-methoxyphenyl)-6-methyl-7-(trifluoromethyl)pyrazolo[1,5-α]pyrimidin-3-yl]-] | < 1000 nM | < 1000 nM |
| COc1ccc(-c2nc3c(C(=O)N4CCN(C(CN)c5ccccc5)C[C@H]4C)cnn3c(C(F)(F)F)c2C)cc1 (stereo partly drawn) [methanone, [(2R)-4-(2-amino-1-phenylethyl)-2-methyl-1-piperazinyl][5-(4-methoxyphenyl)-6-methyl-7-(trifluoromethyl)pyrazolo[1,5-α]pyrimidin-3-yl]-] | < 1000 nM | < 1000 nM |
| COc1ccc(-c2nc3c(C(=O)N4CCN([C@@H](CO)c5cscc5C)C[C@H]4C)cnn3c(C(F)(F)F)c2C)cc1 [methanone, [(2R)-4-[(1R)-2-hydroxy-1-(4-methyl-3-thienyl)ethyl]-2-methyl-1-piperazinyl][5-(4-methoxyphenyl)-6-methyl-7-(trifluoromethyl)pyrazolo[1,5-α]pyrimidin-3-yl]-] | < 1000 nM | < 1000 nM |
| COc1ccc(-c2nc3c(C(=O)N4CCN(C(C(N)=O)c5ccccc5)C[C@H]4C)cnn3c(C(F)(F)F)c2C)cc1 (stereo partly drawn) [1-piperazineacetamide, 4-[[5-(4-methoxyphenyl)-6-methyl-7-(trifluoromethyl)pyrazolo[1,5-α]pyrimidin-3-yl]carbonyl]-3-methyl-α-phenyl-, (3R)-] | < 1000 nM | < 1000 nM |
| COc1ccc(-c2nc3c(C(=O)N4CCN(C(CN(C)C)c5ccccc5)C[C@H]4C)cnn3c(C(F)(F)F)c2C)cc1 (stereo partly drawn) [methanone, [(2R)-4-[2-(dimethylamino)-1-phenylethyl]-2-methyl-1-piperazinyl][5-(4-methoxyphenyl)-6-methyl-7-(trifluoromethyl)pyrazolo[1,5-α]pyrimidin-3-yl]-] | < 1000 nM | < 1000 nM |
